In patent US20130296425A1, “PROPHYLACTIC OR THERAPEUTIC AGENT FOR A PERIPHERAL NERVE DISORDER INDUCED BY ANTI-CANCER AGENTS” (NAGOYA INDUSTRIAL SCIENCE RESEARCH INSTITUTE, priority 2011, published 2013):

Legend:
[1] = test system: paclitaxel-induced peripheral nerve disorder rats; experiment: Repeated intraperitoneal administration, hyperalgesia by paclitaxel (von Frey test); format: in vivo, rat
Protocol: (§1) With regard to male SD rats of six weeks age used as the experimental animals, their 50% reaction threshold values to the mechanical stimulus (the measuring method will be mentioned later) and body weights were measured and then the following seven groups each comprising eight rats was organized. • Normal control group • Onset control group • Prophylactic administration group with 0.25 mg/kg/day of a test drug • Prophylactic administration group with 0.50 mg/kg/day of a test drug • Therapeutic administration group with 0.25 mg/kg/day of a test drug • Therapeutic administration group with 0.50 mg/kg/day of a test drug • Therapeutic administration group with 30 mg/kg/day of gabapentin (positive control)
Taxol (registered trademark) injection 30 mg (manufactured by Bristol-Myers Squibb) containing 6 mg/mL of paclitaxel was used. To the rats of each of the above groups except the normal control group was intraperitoneally administered paclitaxel diluted to 2 mg/mL with saline in a dose of 2 mg/kg four times every other day whereupon the paclitaxel-induced peripheral nerve disorder rats were prepared. To the normal control group, an equivalent mixture of ethanol and Cremophor EL (registered trademark; manufactured by Sigma; a solvent for Taxisol (registered trademark) injection) diluted with saline to an extent of 3-fold was administered similarly.
To prophylactic administration groups of a test drug, the compound 4 in a dose of 0.25 mg/kg/day or 0.50 mg/kg/day was repeatedly administered intraperitoneally since immediately after initiation of administration of paclitaxel until 13 days thereafter. Meanwhile, to therapeutic administration groups of a test drug and to a therapeutic administration group of gabapentin, the compound 4 in a dose of 0.25 mg/kg/day or 0.50 mg/kg/day or gabapentin in a dose of 30 mg/kg/day, respectively was repeatedly administered intraperitoneally during the period of from 14 days to 42 days after initiation of the administration of paclitaxel.
The seven groups of rats of the above (1) were placed in a transparent acrylic cage with a wire-meshed floor and habituated for about three minutes and the 50% reaction threshold values to the mechanical stimulus of right hind limb were measured after 3, 7, 14, 21, 28, 35 and 42 days from initiation of the administration of paclitaxel. Incidentally, during the period of administration of a test drug, its values were measured after 24 hours from the last administration of a test drug.
The measurement was conducted using von Frey filaments (manufactured by North Coast Medical Inc.) in accordance with the methods of Chaplan, et al. (Journal of Neuroscience Methods, vol. 53, no. 1, pages 55 to 63, 1994) and Dixon, et al. (Annual Review of Pharmacology and Toxicology, vol. 20, pages 441 to 462, 1980). […] The case where the rat escaped at the instance of removing the filament was also called positive. When the positive reaction was noted, stimulus was conducted similarly using a filament of one rank weaker while, when no reaction was noted, stimulus was conducted similarly using a filament of one rank stronger and the point when the reaction changed from negative to positive or from positive to negative was called the first two reactions. […] A 50% reaction threshold value to the mechanical stimulus was measured using the reaction to the six stimuli in total and then (mean value) ± (standard error) for each group was calculated. […]

[2] = test system: oxaliplatin-induced peripheral nerve disorder rats; experiment: Repeated intraperitoneal administration, hyperalgesia by oxaliplatin (von Frey test); format: in vivo, rat
Protocol: as §1, with “to” for “to the”, “stimulus” for “stimulus (the measuring method will be mentioned later)”, “comprising 8” for “comprising eight”, “with 10” for “with 30”, “of pregabalin” for “of gabapentin”
To the rats of each of the above groups except the normal control group was intraperitoneally administered an oxaliplatin solution dissolved in glucose injection to an extent of 4 mg/mL in a dose of 4 mg/kg twice weekly for four weeks being eight times in total whereupon the oxaliplatin-induced peripheral nerve disorder rats were prepared. To the normal control group, glucose injection was administered similarly.
To prophylactic administration groups of a test drug, a test drug (the compound 4) in a dose of 0.25 mg/kg/day or 0.50 mg/kg/day was repeatedly administered intraperitoneally since immediately after initiation of administration of oxaliplatin until 27 days thereafter. Meanwhile, to a therapeutic administration group of a test drug and to a therapeutic administration group of pregabalin, a test drug (the compound 4) in a dose of 0.25 mg/kg/day or 0.50 mg/kg/day was repeatedly administered intraperitoneally during the period of from 14 days to 27 days after initiation of the administration of oxaliplatin and, pregabalin was administered orally in repeated dose of 10 mg/kg/day during the same period.
A von Frey test was conducted in the same manner as in the above 1.[1](4) using the seven groups of rats mentioned in the above (1). 50% reaction threshold values in each group were measured before initiating the administration of oxaliplatin and after 7, 14, 21, 28, 33 and 40 days from the initiation of the administration. Mean value ± standard error for each group was calculated and the test for significant difference was conducted in the same manner as in the above 1.[1](4).

[3] = test system: paclitaxel-induced peripheral nerve disorder rats; experiment: Single intraperitoneal administration, hyperalgesia induced by paclitaxel (von Frey test); format: in vivo; details: Rattus norvegicus, ip, single i.p. dose 0.3 mg/kg, higher of the values after 1 hour and 5 hours, read-out: Recovery rate of 50% reaction threshold value (%)
Protocol: Male SD rats in six weeks age (one group comprised six rats) were used as experimental animals and the paclitaxel-induced peripheral nerve disorder rats were prepared in the same manner as in the above 1.[1](2). The test drug was administered intraperitoneally in a single dose so as to make it 0.3 mg/kg in any of the cases during the period of 18 to 25 days or 20 to 27 days after initiation of administration of paclitaxel.
A von Frey test was conducted in the same manner as in the above 1.[1](4) using the rats mentioned in the above (1) and each 50% reaction threshold value was measured. With regard to the higher 50% reaction threshold value between the 50% reaction threshold values after 1 hour and 5 hours from administration of a test drug, a recovery rate (%) of the 50% reaction threshold value was calculated.
Recovery rate (%) of 50% reaction threshold value={[(50% reaction threshold value after 1 hour or 5 hours from administration of test drug)−(50% reaction threshold value before administration of test drug)]÷[(Normal threshold value)−(50% reaction threshold value before administration of test drug)]}×100

CCCCCCC/C=C/C(=O)OCC [Compound 4, Trans-2-decenoic acid ethyl ester]
effect of suppressing the hyperalgesia after completion of the repeated administration ([1]; paclitaxel model, repeated i.p. 0.25 or 0.50 mg/kg/day): still continued | 50% reaction threshold values to the mechanical stimulus vs onset control group ([1]; prophylactic i.p. 0.5 mg/kg/day until 13 days, from 14 days to 28 days after initiation of paclitaxel, male SD rats): significantly high | 50% reaction threshold values to the mechanical stimulus vs onset control group ([1]; therapeutic i.p. 0.25 mg/kg/day (days 14-42), from 21 days to 35 days after paclitaxel): significantly high | 50% reaction threshold values to the mechanical stimulus vs onset control group ([1]; therapeutic i.p. 0.5 mg/kg/day (days 14-42), after 28 days from paclitaxel): significantly high | effect of suppressing the hyperalgesia after completion of the repeated administration ([2]; oxaliplatin model, repeated i.p. 0.25 or 0.50 mg/kg/day): still continued | 50% reaction threshold values to the mechanical stimulus vs onset control group ([2]; prophylactic i.p. 0.25 mg/kg/day until 27 days, from 21 days to 28 days after oxaliplatin): significantly high | 50% reaction threshold values to the mechanical stimulus vs onset control group ([2]; prophylactic i.p. 0.5 mg/kg/day until 27 days, from 21 days to 33 days after oxaliplatin): significantly high | 50% reaction threshold values to the mechanical stimulus vs onset control group ([2]; therapeutic i.p. 0.25 mg/kg/day (days 14-27), after 28 days from oxaliplatin): significantly high | 50% reaction threshold values to the mechanical stimulus vs onset control group ([2]; therapeutic i.p. 0.5 mg/kg/day (days 14-27), from 21 days to 33 days after oxaliplatin): significantly high | inhibition in vivo at 0.3 mg/kg [3]: 48.5%
